What all share (test): ≥ marks a high value that may be exact or a test limit, other limits are often not marked, values filed in µg/mL are converted to µM
One assay has as its system Vibrio anguillarum.
In the next assay the test system is Aeromonas salmonicida.
The subject of assay [1] is Staphylococcus aureus ATCC 29213.
Assay [2] concerns Pseudomonas aeruginosa 15159.
The subject of assay [3] is Staphylococcus aureus FDA 486.
For assay [4], the system named is Pseudomonas aeruginosa ATCC 27853.
In assay [5] the test system is Staphylococcus aureus 2844.
Assay [6] relates to Candida albicans FRR 5580.
For assay [7], the system named is Pseudomonas aeruginosa ATCC 9027.
In assay [8] the test system is Staphylococcus aureus ATCC 25923.
Assay [9] relates to Escherichia coli ATCC 25922.
Assay [10] has as its system Staphylococcus aureus NCTC 12981.
In assay [11] the test system is Escherichia coli NCTC 10418.
The subject of assay [12] is Enterococcus faecium ATCC 700221.
Assay [13] relates to Klebsiella pneumoniae ATCC 700603.
In assay [14] the test system is Salmonella enterica ATCC 6539.
The subject of assay [15] is Acinetobacter baumannii ATCC BAA-747.
The test system of assay [16] is Staphylococcus aureus ATCC 43300.

Values after ≈ are worked out from the molar mass of the structure shown. Bounds are passed on as bounds.

One may read the MIC as the least concentration at which growth counts as inhibited. A high value points to a need for much substance. Turning to `CC(C)[C@H](NC(=O)[C@H](CCC(=O)O)NC(=O)[C@H](C)N)C(=O)N[C@@H](C)C(=O)N1CCC[C@H]1C(=O)N[C@@H](C)C(=O)N1CCC[C@H]1C(=O)N[C@@H](C)C(=O)N[C@@H](C)C(=O)N[C@@H](C)C(=O)N[C@@H](C)C(=O)N1CCC[C@H]1C(=O)N[C@@H](C)C(=O)N[C@@H](CCCCN)C(=O)N[C@@H](C)C(=O)N1CCC[C@H]1C(=O)N[C@@H](CCCCN)C(=O)N[C@@H](CCCCN)C(=O)N[C@@H](CCCCN)C(=O)N[C@@H](C)C(=O)N[C@@H](C)C(=O)N[C@@H](C)C(=O)N[C@@H](CCCCN)C(=O)N1CCC[C@H]1C(=O)N[C@@H](CCCCN)C(=O)N[C@@H](CCCCN)C(N)=O` [AEVAPAPAAAAPAKAPKKKAAAKPKK], the MIC against Vibrio anguillarum and against Aeromonas salmonicida was ≥ 413 µM throughout.

As for `CC[C@H](C)[C@H](NC(=O)[C@H](CCCN=C(N)N)NC(=O)[C@H](CCC(N)=O)NC(=O)[C@@H](NC(=O)[C@@H](NC(=O)[C@H](CCCN=C(N)N)NC(=O)[C@H](CCCCN)NC(=O)[C@H](Cc1ccccc1)NC(=O)[C@H](CCC(=O)O)NC(C)=O)[C@@H](C)CC)C(C)C)C(=O)N[C@@H](CCCCN)C(=O)N[C@@H](CC(=O)O)C(=O)N[C@@H](Cc1ccccc1)C(=O)N[C@@H](CC(C)C)C(=O)N[C@@H](CCCN=C(N)N)C(=O)N[C@@H](CC(N)=O)C(=O)N[C@@H](CC(C)C)C(=O)N[C@H](C(N)=O)C(C)C` [EFKRIVQRIKDFLRNLV], the MIC in assay [1] is 10 µM (≈ 22.2 µg/mL); in assay [2] it was 10 µM (≈ 22.2 µg/mL); in [3] it was 5 µM (≈ 11.1 µg/mL); in [4] it was 10 µM (≈ 22.2 µg/mL); in assay [5] it was 5 µM (≈ 11.1 µg/mL).

`NC(=O)[C@H](CCCN=C(N)N)NC(=O)[C@H](CCCN=C(N)N)NC(=O)[C@H](Cc1c[nH]c2ccccc12)NC(=O)[C@H](Cc1c[nH]c2ccccc12)NC(=O)[C@H](CCCN=C(N)N)NC(=O)[C@H](Cc1c[nH]c2ccccc12)NC(=O)[C@H](Cc1c[nH]c2ccccc12)NC(=O)[C@H](CCCN=C(N)N)NC(=O)[C@H](Cc1c[nH]c2ccccc12)NC(=O)[C@H](CCCN=C(N)N)NC(=O)[C@H](CCCN=C(N)N)NC(=O)[C@H](CCCN=C(N)N)NC(=O)[C@@H](N)CCCN=C(N)N` [RRRRWRWWRWWRR]: the minimal inhibitory concentration (MIC) in assay [6] was ≥ 114 µM; in assay [7], 29.1 µM (≈ 64 µg/mL); in assay [8], 29.1 µM (≈ 64 µg/mL); in assay [9] it was 29.1 µM (≈ 64 µg/mL).

For `NCCCC[C@H](NC(=O)[C@H](Cc1c[nH]c2ccccc12)NC(=O)[C@H](CCCCN)NC(=O)[C@@H](N)Cc1c[nH]c2ccccc12)C(=O)N[C@@H](Cc1c[nH]c2ccccc12)C(N)=O` [WKWKW], the MIC in assay [10] and in assay [11] was ≥ 154 µM each time.

As to `NC(=O)[C@H](CCCN=C(N)N)NC(=O)[C@H](CS)NC(=O)[C@H](Cc1ccc(O)cc1)NC(=O)[C@H](Cc1c[nH]c2ccccc12)NC(=O)[C@H](CCCN=C(N)N)NC(=O)[C@@H](N)Cc1c[nH]c2ccccc12` [WRWYCR], the MIC in [12] was 8 µM (≈ 7.75 µg/mL); in assay [13], 66 µM (≈ 63.9 µg/mL); in assay [14], 8 µM (≈ 7.75 µg/mL); in assay [4], 33 µM (≈ 31.9 µg/mL); in assay [9] it was 17 µM (≈ 16.5 µg/mL); in assay [15], ≥ 132 µM. This compound also gave an MIC in [16] of 66 µM (≈ 63.9 µg/mL).

The values are drawn from DBAASP.
